# Measured values published in patent EP0908457B1, “3-(1,2-benzisothiazol- and isoxazol-5-Y1)-2,4(1H,3H)-pyrimidinedione or thione and 3-(1,2-benzisothiazol- and isoxazol-5-y1)-4(3H)-pyrimidinone or thione herbicidal agents” (BASF AKTIENGESELLSCHAFT, priority 1997, dated 1999).
# Key:
# [1] = system: Echinochloa oryzoides (Ard.) Fritsch.; assay: Preemergence weed control under flooded paddy conditions, ECHORC (Watergrass (Calif.)); type: in vivo; settings: preemergence, flooded paddy, rated three to four weeks after treatment; note: meaning of each grade not given here
# [2] = system: Cyperus iria; assay: Preemergence weed control under flooded paddy conditions, CYPIR (Rice Flatsedge); type: in vivo; settings: preemergence, flooded paddy, rated three to four weeks after treatment; note: meaning of each grade not given here
# [3] = system: Cyperus serotinus, Rottb.; assay: Preemergence weed control under flooded paddy conditions, CYPSE (Flatsedge); type: in vivo; settings: preemergence, rated three to four weeks after treatment; note: meaning of each grade not given here
# [4] = system: Monochoria vaginalis, Presl.; assay: Preemergence weed control under flooded paddy conditions, MOOVA (Monochoria); type: in vivo; settings: preemergence, flooded paddy, rated three to four weeks after treatment; note: meaning of each grade not given here
# [5] = system: Sagittaria pygmaea, L.; assay: Preemergence weed control under flooded paddy conditions, SAGPY (Arrowhead (Pygmaea)); type: in vivo; settings: preemergence, flooded paddy, rated three to four weeks after treatment; note: meaning of each grade not given here
# [6] = system: Echinochloa oryzoides (Ard.) Fritsch.; assay: Postemergence weed control under flooded paddy conditions, ECHORC (Watergrass (Calif.)); type: in vivo; settings: rated three to four weeks after treatment
# [7] = system: Cyperus iria; assay: Postemergence weed control under flooded paddy conditions, CYPIR (Rice Flatsedge); type: in vivo; settings: rated three to four weeks after treatment
# [8] = system: Cyperus serotinus, Rottb.; assay: Postemergence weed control under flooded paddy conditions, CYPSE (Flatsedge); type: in vivo; settings: rated three to four weeks after treatment
# [9] = system: Monochoria vaginalis, Presl.; assay: Postemergence weed control under flooded paddy conditions, MOOVA (Monochoria); type: in vivo; settings: rated three to four weeks after treatment
# [10] = system: Sagittaria pygmaea, L.; assay: Postemergence weed control under flooded paddy conditions, SAGPY (Arrowhead (Pygmaea)); type: in vivo; settings: rated three to four weeks after treatment
# [11] = system: Oryza sativa, (L.) Tebonnet; assay: Rice tolerance to post-transplant applications under flooded paddy conditions (Example 187), ORYSAT (Rice, Tebonnet); settings: rated three to four weeks after treatment
# [12] = system: Oryza sativa, (L.) Tebonnet; assay: Rice tolerance to post-transplant applications under flooded paddy conditions (Example 188), ORYSAT (Rice, Tebonnet); settings: rated three to four weeks after treatment
compound,measurement,setting,value
"CCc1ccc(-c2nsc3ccc(-n4c(=O)cc(C(F)(F)F)n(C)c4=O)cc23)cc1 [Example 5, 3-[3-(p-Ethylphenyl)-1,2-benzisothiazol-5-yl]-1-methyl-6-(trifluoromethyl)-2,4(1H,3H)-pyrimidinedione]","herbicidal effect rating, ECHORC",[1]; 0.0313 kg/ha,9.0
same,"herbicidal effect rating, ECHORC",[1]; 0.0625 kg/ha,9.0
same,"herbicidal effect rating, ECHORC",[1]; 0.1250 kg/ha,9.0
same,"herbicidal effect rating, ECHORC",[1]; 0.2500 kg/ha,9.0
same,"herbicidal effect rating, ECHORC",[1]; 0.5000 kg/ha,9.0
same,"herbicidal effect rating, CYPIR",[2]; 0.0313 kg/ha,9.0
same,"herbicidal effect rating, CYPIR",[2]; 0.0625 kg/ha,9.0
same,"herbicidal effect rating, CYPIR",[2]; 0.1250 kg/ha,9.0
same,"herbicidal effect rating, CYPIR",[2]; 0.2500 kg/ha,9.0
same,"herbicidal effect rating, CYPIR",[2]; 0.5000 kg/ha,9.0
same,"herbicidal effect rating, CYPSE",[3]; 0.0313 kg/ha,0.0
same,"herbicidal effect rating, CYPSE",[3]; 0.0625 kg/ha,2.0
same,"herbicidal effect rating, CYPSE",[3]; 0.1250 kg/ha,6.0
same,"herbicidal effect rating, CYPSE",[3]; 0.2500 kg/ha,8.0
same,"herbicidal effect rating, CYPSE",[3]; 0.5000 kg/ha,7.0
same,"herbicidal effect rating, MOOVA",[4]; 0.0313 kg/ha,9.0
same,"herbicidal effect rating, MOOVA",[4]; 0.0625 kg/ha,9.0
same,"herbicidal effect rating, MOOVA",[4]; 0.1250 kg/ha,9.0
same,"herbicidal effect rating, MOOVA",[4]; 0.2500 kg/ha,9.0
same,"herbicidal effect rating, MOOVA",[4]; 0.5000 kg/ha,9.0
same,"herbicidal effect rating, SAGPY",[5]; 0.0313 kg/ha,0.0
same,"herbicidal effect rating, SAGPY",[5]; 0.0625 kg/ha,0.0
same,"herbicidal effect rating, SAGPY",[5]; 0.1250 kg/ha,2.0
same,"herbicidal effect rating, SAGPY",[5]; 0.2500 kg/ha,7.0
same,"herbicidal effect rating, SAGPY",[5]; 0.5000 kg/ha,7.0
same,"herbicidal effect rating, ECHORC",[6]; Rate 0.0313 kg/ha,2.0
same,"herbicidal effect rating, ECHORC",[6]; Rate 0.0625 kg/ha,7.0
same,"herbicidal effect rating, ECHORC",[6]; Rate 0.1250 kg/ha,6.0
same,"herbicidal effect rating, ECHORC",[6]; Rate 0.2500 kg/ha,9.0
same,"herbicidal effect rating, ECHORC",[6]; Rate 0.5000 kg/ha,9.0
same,"herbicidal effect rating, CYPIR",[7]; Rate 0.0313 kg/ha,9.0
same,"herbicidal effect rating, CYPIR",[7]; Rate 0.0625 kg/ha,9.0
same,"herbicidal effect rating, CYPIR",[7]; Rate 0.1250 kg/ha,9.0
same,"herbicidal effect rating, CYPIR",[7]; Rate 0.2500 kg/ha,9.0
same,"herbicidal effect rating, CYPIR",[7]; Rate 0.5000 kg/ha,9.0
same,"herbicidal effect rating, CYPSE",[8]; Rate 0.0313 kg/ha,0.0
same,"herbicidal effect rating, CYPSE",[8]; Rate 0.0625 kg/ha,0.0
same,"herbicidal effect rating, CYPSE",[8]; Rate 0.1250 kg/ha,0.0
same,"herbicidal effect rating, CYPSE",[8]; Rate 0.2500 kg/ha,0.0
same,"herbicidal effect rating, CYPSE",[8]; Rate 0.5000 kg/ha,0.0
same,"herbicidal effect rating, MOOVA",[9]; Rate 0.0313 kg/ha,9.0
same,"herbicidal effect rating, MOOVA",[9]; Rate 0.0625 kg/ha,9.0
same,"herbicidal effect rating, MOOVA",[9]; Rate 0.1250 kg/ha,9.0
same,"herbicidal effect rating, MOOVA",[9]; Rate 0.2500 kg/ha,9.0
same,"herbicidal effect rating, MOOVA",[9]; Rate 0.5000 kg/ha,9.0
same,"herbicidal effect rating, SAGPY",[10]; Rate 0.0313 kg/ha,2.0
same,"herbicidal effect rating, SAGPY",[10]; Rate 0.0625 kg/ha,2.0
same,"herbicidal effect rating, SAGPY",[10]; Rate 0.1250 kg/ha,4.0
same,"herbicidal effect rating, SAGPY",[10]; Rate 0.2500 kg/ha,6.0
same,"herbicidal effect rating, SAGPY",[10]; Rate 0.5000 kg/ha,8.0
same,"herbicidal effect rating, ORYSAT (rice tolerance)",[11]; 0.0313 kg/ha,2.0
same,"herbicidal effect rating, ORYSAT (rice tolerance)",[11]; 0.0625 kg/ha,3.0
same,"herbicidal effect rating, ORYSAT (rice tolerance)",[11]; 0.1250 kg/ha,4.0
same,"herbicidal effect rating, ORYSAT (rice tolerance)",[11]; 0.2500 kg/ha,5.0
same,"herbicidal effect rating, ORYSAT (rice tolerance)",[11]; 0.5000 kg/ha,7.0
same,"herbicidal effect rating, ORYSAT (rice tolerance)",[12]; Rate 0.0313 kg/ha,2.0
same,"herbicidal effect rating, ORYSAT (rice tolerance)",[12]; Rate 0.0625 kg/ha,2.0
same,"herbicidal effect rating, ORYSAT (rice tolerance)",[12]; Rate 0.1250 kg/ha,4.0
same,"herbicidal effect rating, ORYSAT (rice tolerance)",[12]; Rate 0.2500 kg/ha,6.0
same,"herbicidal effect rating, ORYSAT (rice tolerance)",[12]; Rate 0.5000 kg/ha,8.0
